Tests used:
[1] = target: T1, human TLR2 (Homo sapiens (Human), UniProt O60603); assay: HEK-Blue hTLR2 antagonism assay (SEAP reporter), agonist Pam3CSK4; format: cell-based; details: HEK-Blue hTLR2 cells; Pam3CSK4 (TLR1/2 agonist) at approx. 3×EC50; 18 h; 8-point dilutions
Procedure: (§1) Synthetic diacylated lipoprotein (Pam2CSK4, TLR2/6 agonist) and synthetic triacylated lipoprotein (Pam3CSK4, TLR1/2 agonist) were obtained from InvivoGen and were dissolved in endotoxin-free water to a concentration 1 mg/mL, vortexed until complete solubilization, and stored in aliquots at −20° C. Prior to addition to cells, an aliquot of the dissolved ligand was vortexed shortly and then was diluted in medium to 25 ng/mL Pam2CSK4 or 1000 ng/mL Pam3CSK4.
(§2) Test compounds were solubilized fresh to 10-20 mM stocks in DMSO and sonicated for 5-10 minutes in a water bath sonicator. Serial dilutions were prepared in DMSO, and then diluted in medium. The final concentration of DMSO used in the assay was 1%.
(§3) HEK-Blue hTLR2 reporter cells (InvivoGen) are HEK-293 cells stably expressing both the human TLR2 gene and a secreted embryonic alkaline phosphatase (SEAP) reporter construct downstream of NFκB promotor sites. HEK-Blue hTLR2 reporters were cultured according to manufacturer's protocol using Dulbecco's Modified Eagle Medium (DMEM; Gibco) containing 1× GlutaMax (Gibco), 10% heat-inactivated Fetal Bovine Serum (Gibco), Pen-Strep (50 U/mL penicillin, 50 μg/mL streptomycin, Gibco), 100 μg/mL Normocin (InvivoGen), and the selective antibiotic, lx HEK-Blue Selection (InvivoGen). Quanti-Blue reagent (InvivoGen) for detection and quantification of secreted alkaline phosphatase was dissolved in 100 mL of endotoxin-free water, warmed to 37° C. for 30 minutes and then filtered using a 0.2 μm membrane.
(§4) On day 1, 50 μL of each test compound dilution in duplicates or a vehicle control was added to each well of a 96-well plate followed by addition of 150 μL of HEK-Blue hTLR2 cell suspension (1×10^5 cells/well) and incubated at 37° C./5% CO2 for 2 h. Next, 50 μL of an approximate 3×EC50 concentration of each agonist (Pam2CSK4 or Pam3CSK4) was added to the wells containing test compounds or the vehicle control. The plates were then incubated at 37° C./5% CO2 for 18 h. For each assay run, non-treated HEK-Blue hTLR2 cells were treated with serial dilutions of agonists to determine EC50 values for the respective run.
(§5) On day 2, secreted alkaline phosphatase (SEAP) activity was detected in cell culture supernatants. In brief, 20 μL was collected from each well and transferred to a 96-well plate. Next, 200 μL of Quanti-Blue detection reagent was added to each well. Plates were incubated at room temperature for 15 min and SEAP activity was assessed by spectrophotometer OD reading at 655 nm. […] IC50 values were calculated based on 8-point dilutions for each compound.

[2] = target: T1, human TLR2; assay: HEK-Blue hTLR2 antagonism assay (SEAP reporter), agonist Pam2CSK4; format: cell-based; details: HEK-Blue hTLR2 cells; Pam2CSK4 (TLR2/6 agonist) at approx. 3×EC50; 18 h; 8-point dilutions
Procedure: as §1, §2, §3, §4, §5

T1 sequence (O60603 21-784): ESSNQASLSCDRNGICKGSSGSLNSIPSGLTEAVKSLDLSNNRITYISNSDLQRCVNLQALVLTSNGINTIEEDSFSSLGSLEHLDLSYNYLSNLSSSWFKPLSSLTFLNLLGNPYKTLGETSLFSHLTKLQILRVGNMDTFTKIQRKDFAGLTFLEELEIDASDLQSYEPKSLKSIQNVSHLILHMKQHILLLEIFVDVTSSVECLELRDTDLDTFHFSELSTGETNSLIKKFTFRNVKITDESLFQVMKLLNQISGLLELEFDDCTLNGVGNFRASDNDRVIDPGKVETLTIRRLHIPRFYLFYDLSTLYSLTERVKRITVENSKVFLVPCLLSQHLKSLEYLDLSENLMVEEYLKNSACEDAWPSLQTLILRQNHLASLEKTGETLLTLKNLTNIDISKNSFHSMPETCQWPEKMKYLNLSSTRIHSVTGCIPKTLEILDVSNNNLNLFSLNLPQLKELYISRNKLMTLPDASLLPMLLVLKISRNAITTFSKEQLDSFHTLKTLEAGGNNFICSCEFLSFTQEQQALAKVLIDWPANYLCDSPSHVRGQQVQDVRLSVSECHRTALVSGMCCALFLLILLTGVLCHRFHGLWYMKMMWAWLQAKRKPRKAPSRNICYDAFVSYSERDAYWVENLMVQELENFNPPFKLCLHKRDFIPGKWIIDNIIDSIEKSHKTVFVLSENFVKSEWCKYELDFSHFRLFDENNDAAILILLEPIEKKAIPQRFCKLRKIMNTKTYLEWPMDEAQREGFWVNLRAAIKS

Row | Compound | IC50 [1] | IC50 [2]
1 | C[C@H]1[C@H](c2ccc(N3CCCC3)cc2)OCCN1C(=O)c1cc(F)c(O)c(C=O)c1 (racemic) [Compound 151, rac-3-fluoro-2-hydroxy-5-((2S,3S)-3-methyl-2-(4-(pyrrolidin-1-yl)phenyl)morpholine-4-carbonyl)benzaldehyde] | 7 µM | 16.9 µM
2 | COc1ccc(C2CN(C(=O)c3cc(F)c(O)c(C=O)c3)CCS2)cc1 (racemic) [Compound 152, rac-3-fluoro-2-hydroxy-5-(2-(4-methoxyphenyl)thiomorpholine-4-carbonyl)benzaldehyde] | 5.7 µM | 14.2 µM
3 | O=Cc1cc(C(=O)N2CCCC2c2ccc(N3CCCC3)cc2)cc(F)c1O (racemic) [Compound 155, rac-3-fluoro-2-hydroxy-5-(2-(4-(pyrrolidin-1-yl)phenyl)pyrrolidine-1-carbonyl)benzaldehyde] | 9.62 µM | 15.7 µM
4 | O=Cc1cc(C(=O)Nc2nnc(N3CCCCC3)s2)cc(F)c1O [Compound 1, 3-fluoro-5-formyl-4-hydroxy-N-(5-(piperidin-1-yl)-1,3,4-thiadiazol-2-yl)benzamide] | 21.8 µM | 45.8 µM
5 | O=Cc1cc(C(=O)Nc2nc(-c3ccccc3)cs2)cc(F)c1O [Compound 6, 3-fluoro-5-formyl-4-hydroxy-N-(4-phenylthiazol-2-yl)benzamide] | 3.3 µM | 5.1 µM
6 | O=Cc1cc(C(=O)Nc2cnc(N3CCCC3)s2)cc(F)c1O [Compound 8, 3-fluoro-5-formyl-4-hydroxy-N-(2-(pyrrolidin-1-yl)thiazol-5-yl)benzamide] | 12.9 µM | 17.7 µM
7 | O=Cc1cc(C(=O)c2ccc(N3CCCC3)cc2)cc(F)c1O [Compound 14, 3-fluoro-2-hydroxy-5-(4-(pyrrolidin-1-yl)benzoyl)benzaldehyde] | 18.7 µM | 18.2 µM
8 | O=Cc1cc(-c2scnc2-c2ccccc2)cc(F)c1O [Compound 18, 3-fluoro-2-hydroxy-5-(4-phenylthiazol-5-yl)benzaldehyde] | 20.3 µM | 22.2 µM
9 | O=Cc1cc(C(=O)N2CCC(c3cccc(N4CCCC4)c3)CC2)cc(F)c1O [Compound 35, 3-fluoro-2-hydroxy-5-(4-(3-(pyrrolidin-1-yl)phenyl)piperidine-1-carbonyl)benzaldehyde] | 8 µM | 13.8 µM
10 | O=Cc1cc(C(=O)N2CCC(c3ccc(N4CCCC4)nc3)CC2)cc(F)c1O [Compound 37, 3-fluoro-2-hydroxy-5-(4-(6-(pyrrolidin-1-yl)pyridin-3-yl)piperidine-1-carbonyl)benzaldehyde] | 4.8 µM | 6.2 µM
11 | O=Cc1cc(C(=O)N2CCC(c3ccc(N4CCCC4)cc3)C2)cc(F)c1O (stereo not shown) [Compound 82, 3-fluoro-2-hydroxy-5-(3-(4-(pyrrolidin-1-yl)phenyl)pyrrolidine-1-carbonyl)benzaldehyde] | 3.5 µM | 8.4 µM
12 | O=Cc1cc(C(=O)N2CC(c3ccc(N4CCCC4)cc3)C2)cc(F)c1O [Compound 84, 3-fluoro-2-hydroxy-5-(3-(4-(pyrrolidin-1-yl)phenyl)azetidine-1-carbonyl)benzaldehyde] | 3.8 µM | 6.2 µM
13 | O=Cc1cc(C(=O)Nc2ccc(N3CCCC3)nn2)cc(F)c1O [Compound 92, 3-fluoro-5-formyl-4-hydroxy-N-(6-(pyrrolidin-1-yl)pyridazin-3-yl)benzamide] | 39 µM | 59 µM
14 | O=Cc1cc(C(=O)N2CCCN(c3cccc(N4CCCC4)c3)CC2)cc(F)c1O [Compound 98, 3-fluoro-2-hydroxy-5-(4-(3-(pyrrolidin-1-yl)phenyl)-1,4-diazepane-1-carbonyl)benzaldehyde] | 18.1 µM | 15.1 µM
15 | O=Cc1cc(C(=O)Nc2nc(-c3ccccc3)ns2)cc(F)c1O [Compound 121, 3-fluoro-5-formyl-4-hydroxy-N-(3-phenyl-1,2,4-thiadiazol-5-yl)benzamide] | 7.9 µM | 15.9 µM
16 | O=Cc1cc(C(=O)N2CCN(c3ccc(N4CCCC4)nc3)CC2)cc(F)c1O [Compound 140, 3-fluoro-2-hydroxy-5-(4-(6-(pyrrolidin-1-yl)pyridin-3-yl)piperazine-1-carbonyl)benzaldehyde] | 7.2 µM | 14 µM
17 | O=Cc1cc(C(=O)NCCc2ccc(N3CCCC3)cc2)cc(F)c1O [Compound 143, 3-fluoro-5-formyl-4-hydroxy-N-(4-(pyrrolidin-1-yl)phenethyl)benzamide] | 12.3 µM | 17 µM

Stronger by IC50 [1], values ahead:

Row | IC50 [1] | IC50 [2] | Compound
18 | 1.6 µM | 4.7 µM | O=Cc1cc(C(=O)N2CCOC(c3ccc(N4CCCC4)cc3)C2)cc(F)c1O (racemic) [Compound 147, 3-fluoro-2-hydroxy-5-(2-(4-(pyrrolidin-1-yl)phenyl)morpholine-4-carbonyl)benzaldehyde]
19 | 3.1 µM | 7.5 µM | O=Cc1cc(C(=O)N2CCOC(c3cccc(N4CCCC4)c3)C2)cc(F)c1O (racemic) [Compound 150, rac-3-fluoro-2-hydroxy-5-(2-(3-(pyrrolidin-1-yl)phenyl)morpholine-4-carbonyl)benzaldehyde]
20 | 1.88 µM | 4.99 µM | O=Cc1cc(C(=O)N2CCO[C@@H](c3ccc(N4CCCC4)cc3)C2)cc(F)c1O (single isomer, unassigned) [Compound 148]
21 | 1.74 µM | 4.34 µM | O=Cc1cc(C(=O)N2CCO[C@H](c3ccc(N4CCCC4)cc3)C2)cc(F)c1O (single isomer, unassigned) [Compound 149]
22 | 3.2 µM | 3.7 µM | O=Cc1cc(C(=O)N2CC[C@H](c3ccc(N4CCCC4)cc3)C2)cc(F)c1O (single isomer, unassigned) [Compound 156]
23 | 2.2 µM | 3 µM | O=Cc1cc(C(=O)N2CC[C@@H](c3ccc(N4CCCC4)cc3)C2)cc(F)c1O (single isomer, unassigned) [Compound 157]
24 | 1.7 µM | 2.3 µM | O=Cc1cc(C(=O)Nc2ncc(N3CCCCC3)s2)cc(F)c1O [Compound 3, 3-fluoro-5-formyl-4-hydroxy-N-(5-(piperidin-1-yl)thiazol-2-yl)benzamide]
25 | 2.7 µM | 5.3 µM | O=Cc1cc(C(=O)Nc2ncc(N3CCN(C4CC4)CC3)s2)cc(F)c1O [Compound 5, N-(5-(4-cyclopropylpiperazin-1-yl)thiazol-2-yl)-3-fluoro-5-formyl-4-hydroxybenzamide]
26 | 1 µM | 1.5 µM | O=Cc1cc(C(=O)Nc2ncc(-c3ccc(N4CCCC4)cc3)s2)cc(F)c1O [Compound 13, 3-fluoro-5-formyl-4-hydroxy-N-(5-(4-(pyrrolidin-1-yl)phenyl)thiazol-2-yl)benzamide]
27 | 0.9 µM | 4.1 µM | O=Cc1cc(C(=O)Nc2coc(-c3ccccc3)n2)cc(F)c1O [Compound 15, 3-fluoro-5-formyl-4-hydroxy-N-(2-phenyloxazol-4-yl)benzamide]
28 | 0.4 µM | 0.9 µM | O=Cc1cc(C(=O)N2CCC(c3ccc(N4CCCC4)cc3)CC2)cc(F)c1O [Compound 34, 3-fluoro-2-hydroxy-5-(4-(4-(pyrrolidin-1-yl)phenyl)piperidine-1-carbonyl)benzaldehyde]
29 | 0.6 µM | 1 µM | O=Cc1cc(C(=O)Nc2ncc(-c3ccc(C(F)(F)F)cc3)s2)cc(F)c1O [Compound 115, 3-fluoro-5-formyl-4-hydroxy-N-(5-(4-(trifluoromethyl)phenyl)thiazol-2-yl)benzamide]
30 | 0.8 µM | 0.7 µM | COc1cc(-c2cnn(-c3ccc(C(F)(F)F)cc3)c2)cc(C=O)c1O [Compound 128, 2-hydroxy-3-methoxy-5-(1-(4-(trifluoromethyl)phenyl)-1H-pyrazol-4-yl)benzaldehyde]
31 | 0.4 µM | 0.7 µM | O=Cc1cc(-c2cnc(-c3ccc(N4CCCC4)nc3)s2)ncc1O [Compound 129, 5-hydroxy-2-(2-(6-(pyrrolidin-1-yl)pyridin-3-yl)thiazol-5-yl)isonicotinaldehyde]
32 | 0.8 µM | 1.3 µM | O=Cc1cc(-c2nc(-c3ccc(N4CCCC4)nc3)ns2)cc(F)c1O [Compound 130, 3-fluoro-2-hydroxy-5-(3-(6-(pyrrolidin-1-yl)pyridin-3-yl)-1,2,4-thiadiazol-5-yl)benzaldehyde]

Reference: patent US20240043395A1, “COMPOUNDS AND COMPOSITIONS AS MODULATORS OF TLR SIGNALING” (Neuropore Therapies, Inc., priority 2020, published 2024)
